Consider 12 molecules from EP4603105A1, “PHARMACEUTICAL COMPOSITION CONTAINING CYCLIC COMPOUND HAVING SELECTIVE KRAS INHIBITORY EFFECT AGAINST HRAS AND NRAS” (CHUGAI SEIYAKU KABUSHIKI KAISHA, priority 2022, dated 2024).

Where a SMILES comes first, the peptide text is derived from it. Bridges are numbered along the chain shown (N, C = ends). [ ]: non-standard residue; d: D form. The star is where a group is joined. hPhe(3-Cl-4-CF3) = N[C@@H](CCc1ccc(C(F)(F)F)c(Cl)c1)C(=O)O; NPrPhe(4-CF3) = CCCN[C@@H](Cc1ccc(C(F)(F)F)cc1)C(=O)O; NMeGly(cPent) = CN[C@H](C(=O)O)C1CCCC1; Pro(4,4-F2) = O=C(O)[C@@H]1CC(F)(F)CN1; Hyp = O=C(O)[C@@H]1C[C@@H](O)CN1; NMeL = CN[C@@H](CC(C)C)C(=O)O; Morpholide = C1CN(*)CCO1; Ac5c = NC1(C(=O)O)CCCC1; Ac4c = NC1(C(=O)O)CCC1; NEtG = CCNCC(=O)O; Sar = CNCC(=O)O

Assay [1] concerns the target GDP-bound NRAS wild-type protein (Homo sapiens, UniProt P01111). The experiment in a line: Binding to NRAS by surface plasmon resonance (SPR), KD and KD ratio to KRAS. The following applies: ratio of KD for GDP-bound NRAS wild-type protein to KD for KRAS. In outline:
(§1)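 Running buffer contained 10 µM GDP and 10 mM MgCl2 to keep RAS in the GDP state, with 4% DMSO at pH 7.4. Compounds were flowed at 100 µL/min in 75 s steps of rising concentration over captured biotin-Avi RAS at 30°C. Sensorgrams were fitted 1:1 for KD.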

In assay [2] the test system is human lung cancer strain NCI-H441. Type of assay: cell-based. In outline:
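Step one: dispense the test compound in serial DMSO dilutions. Step three: add the reagent and measure […].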

For the next assay, the target named is HRAS wild-type protein (Homo sapiens, UniProt P01112). In words: Binding to HRAS by surface plasmon resonance (SPR), KD and KD ratio to KRAS. The following applies: ratio of KD for HRAS wild-type protein to KD for KRAS. In outline:
as §1
Background: Surface plasmon resonance follows binding to a sensor surface in real time, without labels.

Chain of GDP-bound NRAS wild-type protein (P01111 whole entry): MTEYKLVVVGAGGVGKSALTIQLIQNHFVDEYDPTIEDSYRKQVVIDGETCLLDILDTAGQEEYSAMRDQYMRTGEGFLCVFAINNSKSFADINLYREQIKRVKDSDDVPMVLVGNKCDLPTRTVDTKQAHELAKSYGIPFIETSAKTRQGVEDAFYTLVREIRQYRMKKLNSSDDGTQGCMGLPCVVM
Chain of HRAS wild-type protein (P01112 whole entry): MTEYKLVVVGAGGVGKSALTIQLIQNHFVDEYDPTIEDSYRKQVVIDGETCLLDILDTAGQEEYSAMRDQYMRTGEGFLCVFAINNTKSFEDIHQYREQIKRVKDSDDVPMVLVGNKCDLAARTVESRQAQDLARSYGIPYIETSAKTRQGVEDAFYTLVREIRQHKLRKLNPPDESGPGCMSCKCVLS

As usually defined, the IC50 is the concentration at which inhibition is half-maximal. Higher therefore signals lower potency. As to `CCCN1C(=O)CN(C)C(=O)CN(C)C(=O)[C@H]([C@@H](C)CC)NC(=O)[C@H](CC(C)C)N(C)C(=O)C[C@@H](C(=O)N2CCOCC2)NC(=O)[C@H](C2CCCC2)N(C)C(=O)C2(CCC2)NC(=O)[C@@H]2C[C@@H](OCC)CN2C(=O)[C@H](CCc2ccc(C(F)(F)F)c(Cl)c2)NC(=O)CN(C)C(=O)[C@@H]1Cc1ccc(C(F)(F)F)cc1` [PP0324] ([NMeL]I[Sar][Sar][NPrPhe(4-CF3)][Sar][hPhe(3-Cl-4-CF3)][Hyp](Et)[Ac4c][NMeGly(cPent)]D-Morpholide; lactam N-11), in assay [1], the “NRAS /KRAS” value is “B (a compound having 3 or more and less than 10 is denoted as B)”. In assay [2], this molecule displayed an IC50 of 38.5 nM. The “HRAS /KRAS” value at HRAS wild-type protein is “B (a compound having 3 or more and less than 10 is denoted as B)”.

Turning to `CCCN1C(=O)CN(C)C(=O)CNC(=O)[C@H]([C@@H](C)CC)NC(=O)[C@H](CC(C)C)N(C)C(=O)C[C@@H](C(=O)N2CCOCC2)NC(=O)[C@H](C2CCCC2)N(C)C(=O)C2(CCCC2)NC(=O)[C@@H]2CCCN2C(=O)[C@H](CCc2ccc(C(F)(F)F)c(Cl)c2)NC(=O)CN(C)C(=O)[C@@H]1Cc1ccc(C(F)(F)F)cc1` [PP0325] ([NMeL]IG[Sar][NPrPhe(4-CF3)][Sar][hPhe(3-Cl-4-CF3)]P[Ac5c][NMeGly(cPent)]D-Morpholide; lactam N-11), in assay [1], the “NRAS /KRAS” value is “B (a compound having 3 or more and less than 10 is denoted as B)”. Also, in assay [2], the IC50 stood at 163 nM. Further, the “HRAS /KRAS” value at HRAS wild-type protein was “B (a compound having 3 or more and less than 10 is denoted as B)”.

On to `CCCN1C(=O)CN(C)C(=O)CNC(=O)[C@H]([C@@H](C)CC)NC(=O)[C@H](CC(C)C)N(C)C(=O)C[C@@H](C(=O)N2CCOCC2)NC(=O)[C@H](C2CCCC2)N(C)C(=O)C2(CCC2)NC(=O)[C@@H]2CCCN2C(=O)[C@H](CCc2ccc(C(F)(F)F)c(Cl)c2)NC(=O)CN(C)C(=O)[C@@H]1Cc1ccc(C(F)(F)F)cc1` [PP0326] ([NMeL]IG[Sar][NPrPhe(4-CF3)][Sar][hPhe(3-Cl-4-CF3)]P[Ac4c][NMeGly(cPent)]D-Morpholide; lactam N-11), for which the “NRAS /KRAS” value in assay [1] is “B (a compound having 3 or more and less than 10 is denoted as B)”. Besides, the IC50 in assay [2] amounted to 172 nM. Also, the “HRAS /KRAS” value at HRAS wild-type protein was “B (a compound having 3 or more and less than 10 is denoted as B)”.

With `CCCN1C(=O)CN(C)C(=O)CNC(=O)[C@H]([C@@H](C)CC)NC(=O)[C@H](CC(C)C)N(C)C(=O)C[C@@H](C(=O)N2CCOCC2)NC(=O)[C@H](C2CCCC2)N(C)C(=O)C2(CCCC2)NC(=O)[C@@H]2CC(F)(F)CN2C(=O)[C@H](CCc2ccc(C(F)(F)F)c(Cl)c2)NC(=O)CN(C)C(=O)[C@@H]1Cc1ccc(C(F)(F)F)cc1` [PP0327] ([NMeL]IG[Sar][NPrPhe(4-CF3)][Sar][hPhe(3-Cl-4-CF3)][Pro(4,4-F2)][Ac5c][NMeGly(cPent)]D-Morpholide; lactam N-11), the “NRAS /KRAS” value in assay [1] was “B (a compound having 3 or more and less than 10 is denoted as B)”. In addition, inhibition in assay [2] was half-maximal at 162 nM (IC50). Also, the “HRAS /KRAS” value on HRAS wild-type protein is “B (a compound having 3 or more and less than 10 is denoted as B)”.

For the molecule `CCCN1C(=O)CN(C)C(=O)CNC(=O)[C@H]([C@@H](C)CC)NC(=O)[C@H](CC(C)C)N(C)C(=O)C[C@@H](C(=O)N2CCOCC2)NC(=O)[C@H](C2CCCC2)N(C)C(=O)C2(CCC2)NC(=O)[C@@H]2CC(F)(F)CN2C(=O)[C@H](CCc2ccc(C(F)(F)F)c(Cl)c2)NC(=O)CN(C)C(=O)[C@@H]1Cc1ccc(C(F)(F)F)cc1` [PP0328] ([NMeL]IG[Sar][NPrPhe(4-CF3)][Sar][hPhe(3-Cl-4-CF3)][Pro(4,4-F2)][Ac4c][NMeGly(cPent)]D-Morpholide; lactam N-11), the “NRAS /KRAS” value in assay [1] was “B (a compound having 3 or more and less than 10 is denoted as B)”. Moreover, the half-maximal inhibitory concentration (IC50) in assay [2] was 243 nM. For the same molecule, the “HRAS /KRAS” value on HRAS wild-type protein was “B (a compound having 3 or more and less than 10 is denoted as B)”.

Consider `CCCN1C(=O)CN(C)C(=O)CNC(=O)[C@H]([C@@H](C)CC)NC(=O)[C@H](CC(C)C)N(C)C(=O)C[C@@H](C(=O)N2CCOCC2)NC(=O)[C@H](C2CCCC2)N(C)C(=O)C2(CCCC2)NC(=O)[C@@H]2C[C@@H](OCC)CN2C(=O)[C@H](CCc2ccc(C(F)(F)F)c(Cl)c2)NC(=O)CN(C)C(=O)[C@@H]1Cc1ccc(C(F)(F)F)cc1` [PP0329] ([NMeL]IG[Sar][NPrPhe(4-CF3)][Sar][hPhe(3-Cl-4-CF3)][Hyp](Et)[Ac5c][NMeGly(cPent)]D-Morpholide; lactam N-11), for which the “NRAS /KRAS” value in assay [1] is “B (a compound having 3 or more and less than 10 is denoted as B)”. In assay [2], this molecule returned a half-maximal inhibitory concentration (IC50) of 65.8 nM. Besides, the “HRAS /KRAS” value at HRAS wild-type protein is “C (A compound having a KD ratio of 0.1 or more and less than 3 is denoted as C)”.

In the case of `CCCN1C(=O)CN(C)C(=O)CNC(=O)[C@H]([C@@H](C)CC)NC(=O)[C@H](CC(C)C)N(C)C(=O)C[C@@H](C(=O)N2CCOCC2)NC(=O)[C@H](C2CCCC2)N(C)C(=O)C2(CCC2)NC(=O)[C@@H]2C[C@@H](OCC)CN2C(=O)[C@H](CCc2ccc(C(F)(F)F)c(Cl)c2)NC(=O)CN(C)C(=O)[C@@H]1Cc1ccc(C(F)(F)F)cc1` [PP0330] ([NMeL]IG[Sar][NPrPhe(4-CF3)][Sar][hPhe(3-Cl-4-CF3)][Hyp](Et)[Ac4c][NMeGly(cPent)]D-Morpholide; lactam N-11), the “NRAS /KRAS” value in assay [1] was “B (a compound having 3 or more and less than 10 is denoted as B)”. The molecule also showed an IC50 in assay [2] of 98.2 nM. Besides, the “HRAS /KRAS” value at HRAS wild-type protein was “C (A compound having a KD ratio of 0.1 or more and less than 3 is denoted as C)”.

In the case of `CCCN1C(=O)CN(C)C(=O)CN(CC)C(=O)[C@H]([C@@H](C)CC)NC(=O)[C@H](CC(C)C)N(C)C(=O)C[C@@H](C(=O)N2CCOCC2)NC(=O)[C@H](C2CCCC2)N(C)C(=O)C2(CCCC2)NC(=O)[C@@H]2CCCN2C(=O)[C@H](CCc2ccc(C(F)(F)F)c(Cl)c2)NC(=O)CN(C)C(=O)[C@@H]1Cc1ccc(C(F)(F)F)cc1` [PP0331] ([NMeL]I[NEtG][Sar][NPrPhe(4-CF3)][Sar][hPhe(3-Cl-4-CF3)]P[Ac5c][NMeGly(cPent)]D-Morpholide; lactam N-11), the “NRAS /KRAS” value in assay [1] was “B (a compound having 3 or more and less than 10 is denoted as B)”. The IC50 in assay [2] is 84.7 nM. In addition, at HRAS wild-type protein, the “HRAS /KRAS” value was “B (a compound having 3 or more and less than 10 is denoted as B)”.

For the molecule `CCCN1C(=O)CN(C)C(=O)CN(CC)C(=O)[C@H]([C@@H](C)CC)NC(=O)[C@H](CC(C)C)N(C)C(=O)C[C@@H](C(=O)N2CCOCC2)NC(=O)[C@H](C2CCCC2)N(C)C(=O)C2(CCC2)NC(=O)[C@@H]2CCCN2C(=O)[C@H](CCc2ccc(C(F)(F)F)c(Cl)c2)NC(=O)CN(C)C(=O)[C@@H]1Cc1ccc(C(F)(F)F)cc1` [PP0332] ([NMeL]I[NEtG][Sar][NPrPhe(4-CF3)][Sar][hPhe(3-Cl-4-CF3)]P[Ac4c][NMeGly(cPent)]D-Morpholide; lactam N-11), the “NRAS /KRAS” value in assay [1] was “B (a compound having 3 or more and less than 10 is denoted as B)”. In assay [2], this molecule displayed an IC50 of 167 nM. Moreover, the “HRAS /KRAS” value at HRAS wild-type protein was “B (a compound having 3 or more and less than 10 is denoted as B)”.

Turning to `CCCN1C(=O)CN(C)C(=O)CN(CC)C(=O)[C@H]([C@@H](C)CC)NC(=O)[C@H](CC(C)C)N(C)C(=O)C[C@@H](C(=O)N2CCOCC2)NC(=O)[C@H](C2CCCC2)N(C)C(=O)C2(CCCC2)NC(=O)[C@@H]2CC(F)(F)CN2C(=O)[C@H](CCc2ccc(C(F)(F)F)c(Cl)c2)NC(=O)CN(C)C(=O)[C@@H]1Cc1ccc(C(F)(F)F)cc1` [PP0333] ([NMeL]I[NEtG][Sar][NPrPhe(4-CF3)][Sar][hPhe(3-Cl-4-CF3)][Pro(4,4-F2)][Ac5c][NMeGly(cPent)]D-Morpholide; lactam N-11), the “NRAS /KRAS” value in assay [1] was “B (a compound having 3 or more and less than 10 is denoted as B)”. The molecule further registered a concentration for half-maximal inhibition (IC50) in assay [2] of 41.6 nM. The “HRAS /KRAS” value on HRAS wild-type protein was “C (A compound having a KD ratio of 0.1 or more and less than 3 is denoted as C)”.

As for `CCCN1C(=O)CN(C)C(=O)CN(CC)C(=O)[C@H]([C@@H](C)CC)NC(=O)[C@H](CC(C)C)N(C)C(=O)C[C@@H](C(=O)N2CCOCC2)NC(=O)[C@H](C2CCCC2)N(C)C(=O)C2(CCC2)NC(=O)[C@@H]2CC(F)(F)CN2C(=O)[C@H](CCc2ccc(C(F)(F)F)c(Cl)c2)NC(=O)CN(C)C(=O)[C@@H]1Cc1ccc(C(F)(F)F)cc1` [PP0334] ([NMeL]I[NEtG][Sar][NPrPhe(4-CF3)][Sar][hPhe(3-Cl-4-CF3)][Pro(4,4-F2)][Ac4c][NMeGly(cPent)]D-Morpholide; lactam N-11), the “NRAS /KRAS” value in assay [1] was “B (a compound having 3 or more and less than 10 is denoted as B)”. Further, in assay [2], the IC50 was found to be 130 nM. Moreover, at HRAS wild-type protein, the “HRAS /KRAS” value is “C (A compound having a KD ratio of 0.1 or more and less than 3 is denoted as C)”.

In the case of `CCCN1C(=O)CN(C)C(=O)CN(CC)C(=O)[C@H]([C@@H](C)CC)NC(=O)[C@H](CC(C)C)N(C)C(=O)C[C@@H](C(=O)N2CCOCC2)NC(=O)[C@H](C2CCCC2)N(C)C(=O)C2(CCCC2)NC(=O)[C@@H]2C[C@@H](OCC)CN2C(=O)[C@H](CCc2ccc(C(F)(F)F)c(Cl)c2)NC(=O)CN(C)C(=O)[C@@H]1Cc1ccc(C(F)(F)F)cc1` [PP0335] ([NMeL]I[NEtG][Sar][NPrPhe(4-CF3)][Sar][hPhe(3-Cl-4-CF3)][Hyp](Et)[Ac5c][NMeGly(cPent)]D-Morpholide; lactam N-11), the “NRAS /KRAS” value in assay [1] was “B (a compound having 3 or more and less than 10 is denoted as B)”. In assay [2], this molecule returned an IC50 of 41.7 nM. Besides, the “HRAS /KRAS” value at HRAS wild-type protein was “C (A compound having a KD ratio of 0.1 or more and less than 3 is denoted as C)”.
